Source: paper PMC7824383, “Organic Solution Advanced Spray-Dried Microparticulate/Nanoparticulate Dry Powders of Lactomorphin for Respiratory Delivery: Physicochemical Characterization, In Vitro Aerosol Dispersion, and Cellular Studies” (Pharmaceutics, 2020)
In brackets after ≈: the same amount, converted by molar mass. Read-outs that look alike come from different tables or passages of the source. Square brackets hold non-standard residues; d marks the D form. Peptide text beside a SMILES is read from it. * marks the point of attachment. X1 = OC[C@H]1O[C@@H](O[C@H]2[C@H](O)[C@@H](O)[C@H](*)O[C@@H]2CO)[C@H](O)[C@@H](O)[C@H]1O

Assays:
[1] = Equilibrium solubility by shake-flask method (SFM); assay type: physicochemical
Method: The solubility of the unionized form of raw (unprocessed) Lactomorphin was determined by the shake-flask method (SFM) using conditions similar to previously reported. For each reported solubility result, three independent SFM experiments were carried out in parallel in the following solvents (purified water, PBS, NS, methanol, and ethanol). For each experiment, the solid sample of Lactomorphin was added using a spatula to a specific volume of each solvent in closed, light-protected glass vials while shaking the vial until a heterogeneous system of the solid sample and the solvent was achieved. Samples were visually inspected to ensure that solid Lactomorphin was still in excess in each vial. The solution containing solid excess of the Lactomorphin was then capped and allowed to agitate using the shaker for 24 h at room temperature (25 °C). The presence of precipitation was checked after several hours. If dissolution was complete, more solid Lactomorphin was added to the vial.
The pH values of Lactomorphin ampholyte suspensions were adjusted to the isoelectric point to determine the solubilities of the zwitterionic species point and to assure the predominant presence of the unionized form of Lactomorphin. The pH of each Lactomorphin suspension in each solvent (except in methanol and ethanol, which were just measured) was adjusted by using 0.1 M NaOH/0.1 M HCl to a value of 8.5. The pH values for all vials were checked after saturation, several hours after the shaking process started, and after equilibrium was achieved. Separating saturated solution and precipitate by sedimentation was performed, which is more accurate than filtration since the filtration step is labor-intensive and tedious, it has been a known issue that drug loss can occur through membrane absorption during filtration in the SFM [32]. Aliquots of supernatant were then taken out with a micropipette from all saturated solutions and diluted with each corresponding solvent. Analytical HPLC measured the concentration of Lactomorphin in each aliquot in against freshly prepared calibration curves. As mentioned above, three independent SFMs were made for each reported result. Thus, the reported results were the mean of three measured concentrations and the standard deviation of the mean (n = 3, mean ± Standard deviation).
The HPLC system was LC-2010HT next generation HPLC (SHIMADZU Tokyo, Japan), comprised of a degassing unit, low-pressure gradient unit, pump unit, mixer, ultra-fast autosampler, column oven, and a UV-VIS detector with a thermostatted flow cell. System. The analysis was performed by a reverse phase HPLC assay, using Phenomenex Prodigy 5 um ODS (3) 250 × 4.6 mm HPLC Column. Ultraviolet detection was done at 280 nm. Mobile phase conditions were gradient of acetonitrile (CH3CN) in water (H2O) with 0.1% trifluoroacetic acid (F3CCOOH) at a 1 mL/min flow rate. The injection volume was 20 μL; the retention time for Lactomorphin was ~8.5 min. Quantification was determined using peak area and calculated from a nine-point standard curve; standard curve points were prepared by dilution in water.

[2] = Partition coefficient (LogP) by shake-flask, 1-octanol/water; assay type: physicochemical; conditions: shake-flask 1-octanol/water (equal volumes, water saturated with octanol), 1 mg/mL, pH 8.5, shaken 24 h then 24 h standing, HPLC-UV 280 nm, mean ± SD, n = 3
Method: Lipophilicity is a critical physicochemical property that affects ADMET (absorption, distribution, metabolism, excretion, and toxicity). SFM is the most known lipophilicity measurement method, which is based on liquid-liquid extraction using the n-octanol/water system. The partition coefficient of Lactomorphin was measured at the room, and physiological temperatures via SFM using conditions similar to previously reported. The Lactomorphin powder was dispensed into two individual glass vials containing equal volumes of 1-octanol and water to achieve a 1 mg/mL concentration. The water solution in each vial was saturated with octanol before analysis. The pH was measured and fixed to 8.5 value to assure the predominant presence of the unionized form of Lactomorphin. The pH stability in both vials was regularly checked throughout the experiment. The first vial was shaken for 24 h at room temperature. The other one was shaken for 24 h while kept in an incubator at 37 °C. After 24 h, the vials shaking was stopped. […] A sample from each layer was carefully withdrawn and analyzed by the analytical HPLC to measure the concentration of Lactomorphin in each layer then calculate the Partition coefficient (P) and logP using the following equations:(4) P =[neutral solute]oct/[neutral solute]Aq (5) LogP=log10[neutral solute]oct/[neutral solute]Aq […]

[3] = test system: Normal Human Astrocytes (NHA); test: Resazurin cell viability assay, NHA; conditions: NHA cells, 48 h exposure, 0.1, 1, 10 and 1000 µg/mL, resazurin fluorescence; p > 0.05
[4] = test system: H441 lung adenocarcinoma cells; test: Resazurin cell viability assay, H441; conditions: 48 h exposure, 0.1, 1, 10 and 1000 µg/mL, resazurin fluorescence, p > 0.05
[5] = test system: hCMEC/D3 human cerebral microvascular endothelial cells; test: Resazurin cell viability assay, hCMEC/D3; conditions: 48 h exposure, 0.1, 1, 10 and 1000 µg/mL, resazurin fluorescence, p > 0.05
[6] = test system: RPMI 2650 human nasal epithelial cells; test: Resazurin cell viability assay, RPMI 2650; conditions: RPMI2650 cells, 48 h exposure, 0.1, 1, 10 and 1000 µg/mL, resazurin fluorescence 544/590 nm; p > 0.05

## CC(C)C[C@H](NC(=O)[C@H](Cc1ccccc1)NC(=O)CNC(=O)[C@H](NC(=O)[C@@H](N)Cc1ccc(O)cc1)[C@H](C)O)C(=O)N[C@@H](CO[C@@H]1O[C@H](CO)[C@@H](O[C@@H]2O[C@H](CO)[C@H](O)[C@H](O)[C@H]2O)[C@H](O)[C@H]1O)C(N)=O [Lactomorphin, H2N-Tyr-D-Thr- Gly-Phe-Leu-Ser-(O-β-Lactoside)-CONH2] (H-Y[dT]GFLS(X1)-NH2)
[1]; PBS, pH 8.50 (adjusted), 25 °C
  Solubility (USP) Definition, PBS: Freely soluble (Fs) (all these solubility values fell in the range of 100–1000 mg/mL, which is the freely soluble category)
[1]; aqueous buffer, thermodynamic from solid, water, NS and PBS, shake-flask, pH 8.5, 25 °C, read-out: aqueous solubility
  solubility thermodynamic at 24 h: > 100 mg/mL
[1]; ethanol, pH 7.30 (measured), 25 °C
  Solubility (USP) Definition, Ethanol: Sparingly soluble (sps)
[1]; from experimental solubility, footnote: S in mMoleunit, NS, pH 8.50
  Calculated Log S, NS: −0.9
[1]; from experimental solubility, footnote: S in mMoleunit, PBS, pH 8.50
  Calculated Log S, PBS: −0.3
[1]; from experimental solubility, footnote: S in mMoleunit, ethanol
  Calculated Log S, Ethanol: −1.7
[1]; from experimental solubility, footnote: S in mMoleunit, methanol
  Calculated Log S, Methanol: −1.3
[1]; from experimental solubility, footnote: S in mMoleunit, water, pH 8.50
  Calculated Log S, Water: −0.6
[1]; methanol, pH 7.27 (measured), 25 °C
  Solubility (USP) Definition, Methanol: Soluble (s)
[1]; normal saline (NS), pH 8.5, saline or isotonic, thermodynamic from solid, thermodynamic shake-flask, excess solid, normal saline, pH 8.50 (adjusted), shaken 24 h, 25 °C, HPLC-UV 280 nm, mean ± SD, n = 3, read-out: Solubility in NS
  solubility thermodynamic at 24 h: 140.4 ± 0.32 mg/mL (≈ 139 mM)
[1]; normal saline, pH 8.50 (adjusted), 25 °C
  Solubility (USP) Definition, NS: Freely soluble (Fs) (all these solubility values fell in the range of 100–1000 mg/mL, which is the freely soluble category)
[1]; pH 8.5, aqueous buffer, thermodynamic from solid, thermodynamic shake-flask, excess solid, PBS, pH 8.50 (adjusted), shaken 24 h, 25 °C, HPLC-UV 280 nm, mean ± SD, n = 3, read-out: Solubility in PBS
  solubility thermodynamic at 24 h: 570.3 ± 2 mg/mL (≈ 565 mM)
[1]; pH 8.5, thermodynamic from solid, thermodynamic shake-flask, excess solid raw Lactomorphin, purified water, pH 8.50 (adjusted with 0.1 M NaOH/HCl), shaken 24 h, 25 °C, sedimentation, HPLC-UV 280 nm, mean ± SD, n = 3, read-out: Solubility in Water
  solubility thermodynamic at 24 h: 267 ± 6 mg/mL (≈ 264 mM)
[1]; thermodynamic shake-flask, excess solid, ethanol, pH 7.30 (measured), shaken 24 h, 25 °C, HPLC-UV 280 nm, mean ± SD, n = 3
  Solubility in Ethanol: 18.00 ± 0.00 mg/mL (≈ 17.8 mM)
[1]; thermodynamic shake-flask, excess solid, methanol, pH 7.27 (measured), shaken 24 h, 25 °C, HPLC-UV 280 nm, mean ± SD, n = 3
  Solubility in Methanol: 45.67 ± 1.00 mg/mL (≈ 45.2 mM)
[1]; water, pH 8.50 (adjusted), 25 °C
  Solubility (USP) Definition, Water: Freely soluble (Fs) (all these solubility values fell in the range of 100–1000 mg/mL, which is the freely soluble category)
[2]; 25 °C
  Experimental LogP at Room Temperature (25 °C): −2.40 ± 0.00
[2]; 37 °C
  Experimental LogP at Physiological Temperature (37 °C): −2.33 ± 0.02
[3]
  relative cell viability% vs control: no statistically significant difference
[4]
  relative cell viability% vs control: no statistically significant difference
[5]
  relative cell viability% vs control: no statistically significant difference
[6]
  relative cell viability% vs control: no statistically significant difference
